The values below come from patent publication US8293731B2, “HIV integrase inhibitors” (Merck Sharp + Dohme Corp., priority 2005, dated 2012).

Bounds are passed on as bounds.

The test system of this assay is HIV. Description: Assay for inhibition of HIV replication (spread assay): acute HIV infection of T-lymphoid cells. Type of assay: cell-based. The settings on record: Human immunodeficiency virus 1, 'less than about'. On the procedure:
Assays for the inhibition of acute HIV infection of T-lymphoid cells were conducted in accordance with Vacca, J. P. et al., Proc. Natl. Acad. Set USA 1994, 91: 4096. […] For example, the compounds of Examples 1 to 64 were tested in this assay and found to have IC95 values of less than about 10 micromolar.
What is called IC95 is the concentration needed for an effect of 95%. Higher therefore signals a need for much substance. Regarding `CN1CC(O)C(C)(C)Cn2c(c3c(c(O)c2=O)C(=O)N(Cc2ccc(F)c(Cl)c2)CC3)C1=O` (racemic) [Example 38, (4R/S)-11-(3-Chloro-4-fluorobenzyl)-4,9-dihydroxy-2,5,5-trimethyl-3,4,5,6,12,13-hexahydro-2H[1,4]diazocino[2,1-a]-2,6-naphthyridine-1,8,10(11H)-trione], the concentration for an effect of 95% (IC95) was < 10 µM.

In the case of `CN1CC(O)C(C)(C)Cn2c(c3c(c(O)c2=O)C(=O)N(Cc2ccc(F)c(Cl)c2)CC3)C1=O` (racemic) [Example 40, (4R/S)-11-(3-Chloro-4-fluorobenzyl)-4,9-dihydroxy-2,5,5-trimethyl-3,4,5,6,12,13-hexahydro-2H[1,4]diazocino[2,1-a]-2,6-naphthyridine-1,8,10(11H)-trione], the concentration for an effect of 95% (IC95) was < 10 µM.

As to `CN1CC(O)C(C)(C)Cn2c(c3c(c(O)c2=O)C(=O)N(Cc2ccc(F)cc2)CC3)C1=O` (racemic) [Example 42, (4R/S)-11-(4-Fluorobenzyl)-4,9-dihydroxy-2,5,5-trimethyl-3,4,5,6,12,13-hexahydro-2H[1,4]diazocino[2,1-a]-2,6-naphthyridine-1,8,10(11H)-trione], the IC95 is < 10 µM.

Regarding `CN1CC(O)CCn2c(c3c(c(O)c2=O)C(=O)N(Cc2ccc(F)c(Cl)c2)CC3)C1=O` (single isomer, unassigned) [Example 23, 11-(3-Chloro-4-fluorobenzyl)-4,9-dihydroxy-2-methyl-3,4,5,6,12,13-hexahydro-2H[1,4]diazocino[2,1-a]-2,6-naphthyridine-1,8,10(11H)-trione], the IC95 is < 10 µM.

Take `CN1CCCCn2c(c3c(c(O)c2=O)C(=O)N(Cc2ccc(F)c(Cl)c2)CC3)C1=O` [Example 1, 11-(3-Chloro-4-fluorobenzyl)-9-hydroxy-2-methyl-3,4,5,6,12,13-hexahydro-2H[1,4]diazocino[2,1-a]-2,6-naphthyridine-1,8,10(11H)-trione]: the concentration for an effect of 95% (IC95) is < 10 µM.

With `CN1CCCCn2c(c3c(c(O)c2=O)C(=O)N(Cc2ccc(F)cc2)CC3)C1=O` [Example 2, 11-(4-Fluorobenzyl)-9-hydroxy-2-methyl-3,4,5,6,12,13-hexahydro-2H[1,4]diazocino[2,1-a]-2,6-naphthyridine-1,8,10(11H)-trione], the IC95 is < 10 µM.

In the case of `CN1CCCn2c(c3c(c(O)c2=O)C(=O)N(Cc2ccc(F)c(Cl)c2)CC3)C1=O` [Example 3, 10-(3-Chloro-4-fluorobenzyl)-8-hydroxy-2-methyl-2,3,4,5,11,12-hexahydro[1,4]diazepino[2,1-a]-2,6-naphthyridine-1,7,9(10H)-trione], the IC95 is < 10 µM.

Take `O=C1NCCCn2c1c1c(c(O)c2=O)C(=O)N(Cc2ccc(F)c(Cl)c2)CC1` [Example 4, 10-(3-Chloro-4-fluorobenzyl)-8-hydroxy-2,3,4,5,11,12-hexahydro[1,4]diazepino[2,1-a]-2,6-naphthyridine-1,7,9(10H)-trione]: the IC95 is < 10 µM.

Take `O=C1NCCn2c1c1c(c(O)c2=O)C(=O)N(Cc2ccc(F)c(Cl)c2)CC1` [Example 5, 9-(3-Chloro-4-fluorobenzyl)-7-hydroxy-3,4,10,11-tetrahydro-2H-pyrazino[2,1-a]-2,6-naphthyridine-1,6,8(9H)-trione]: the concentration for an effect of 95% (IC95) is < 10 µM.

As to `CN1CCn2c(c3c(c(O)c2=O)C(=O)N(Cc2ccc(F)c(Cl)c2)CC3)C1=O` [Example 6, 9-(3-Chloro-4-fluorobenzyl)-7-hydroxy-2-methyl-3,4,10,11-tetrahydro-2H-pyrazino[2,1-a]-2,6-naphthyridine-1,6,8(9H)-trione], the IC95 was < 10 µM.

Turning to `O=C1OCCn2c1c1c(c(O)c2=O)C(=O)N(Cc2ccc(F)c(Cl)c2)CC1` [Example 7, 9-(3-Chloro-4-fluorobenzyl)-7-hydroxy-3,4,10,11-tetrahydro[1,4]oxazino[3,4-a]-2,6-naphthyridine-1,6,8(9H)-trione], the IC95 is < 10 µM.
